BindingDB's records for doi:10.1016/s0960-894x(00)00465-0 (Boehringer Ingelheim Pharmaceuticals, 2001)
Non-standard residues stand in square brackets, D forms with d. Residues, ends and D or L forms follow the SMILES beside them. *: point of attachment. Hyp = O=C(O)[C@@H]1C[C@@H](O)CN1; Chg = N[C@H](C(=O)O)C1CCCCC1; Nva = CCC[C@H](N)C(=O)O; X1 = c1ccc2cc(C*)ccc2c1

Assay: Compound was evaluated for its inhibitory activity against porcine pancreatic elastase (PPE)

With `CCC[C@H](NC(=O)[C@@H]1C[C@@H](OCc2ccc3ccccc3c2)CN1C(=O)[C@@H](NC(=O)[C@@H](NC(=O)[C@@H](CCC(=O)O)NC(=O)[C@H](CC(=O)O)NC(C)=O)C1CCCCC1)C(C)C)C(=O)O` [(S)-2-{[(2S,4R)-1-((S)-2-{(S)-2-[(R)-2-((S)-2-Acetylamino-3-carboxy-propionylamino)-4-carboxy-butyrylamino]-2-cyclohexyl-acetylamino}-3-methyl-butyryl)-4-(naphthalen-2-ylmethoxy)-pyrrolidine-2-carbonyl]-amino}-pentanoic acid] (Ac-D[dE][Chg]V[Hyp](X1)[Nva]-OH) the IC50 was > 300 µM.
